The values below come from patent publication US20250235543A1, “MODIFIED PROTEINS AND PROTEIN DEGRADERS” (Cullgen (Shanghai), Inc., priority 2021, published 2025).

Experiment [1] relates to cyclin D1, cyclin D2, cyclin D3. The experiment in a line: Immunoblot of cyclin D protein levels in Calu-1 (and BT-549) cells. The class given is cell-based. The note with it: 16 hours; for decrease of degradation potency versus corresponding active compound: Calu-1 cells, CPD-042 vs CPD-002, CPD-049 vs CPD-031. As to the method: Specific exemplary heterobifunctional compounds were characterized in Calu-1, BT-549 and other cells. Cells that express cyclin D1-3 and CDK4/6 proteins were treated with heterobifunctional compounds disclosed herein at indicated concentrations for 16 hours. Cells were collected, lysed and subject to immunoblotting using an antibody specific to cyclin D1, cyclin D2, cyclin D3, CDK4, CDK6 or phosphorylated R^b proteins. Tubulin or GAPDH was used as the loading control. DMSO treatment was used as the negative control.
In a time-course study, Calu-1 cells were treated with 500 nM CPD-002, or 100 nM CPD-031 for indicated period of time prior to immunoblotting (FIG. 4A-4B).
The heterobifunctional compound-mediated degradation was dependent on the ubiquitin-proteasome system and cullin E3 ligase. […] In addition, DDB1 E3 ligase was critical for the degrader-induced cyclin D downregulation. Depletion of DDB1 using CRISPR-Cas9 technology attenuated the cyclin D degradation induced by CPD-031 (FIG. 5C).
(§1) To verify that heterobifunctional compound-mediated degradation is dependent on the binding to CDK4-cyclin D complex, we designed three negative control compounds, CPD-042, CPD-049 and CPD-380, which are derived from CPD-002 CPD-031 and CPD-343, respectively. These three control compounds bear the same DDB1 ligand and linker as their corresponding active heterobifunctional compounds but with modified warheads to impair the binding of the control compounds to CDK4. […] However, the binding to CDK4 is not sufficient for cyclin D degradation. Two cereblon (CRBN)-recruiting reference heterobifunctional compounds, CP-10 (Su, J Med Chem, 2019; CAS No.: 2366268-80-4) and BSJ-03-123 (Brand, Cell Chem Biol, 2019; CAS No.: 2361493-16-3) were analyzed in Calu-1 cells.

Experiment [2] has as its system Calu-1. The experiment in a line: Cell viability assay, Calu-1. The class given is cell-based. The note with it: Calu-1 cells, 96-well plates, serial dilution, 3 days. How it is done: Cells were treated with CDK4/6 inhibitors palbociclib, ribociclib, or abemaciclib, or heterobifunctional compounds CPD-002 or CPD-031 following a 9-point serial dilution for 3 days.
Cells were seeded at a density of 2,000-5,000 cells per well in 96-well assay plates and treated with test compounds following a 10-point serial dilution for 3-6 days. Cell viability was determined using the CellTiter-Lumi assay kit according to the manufacturer's instructions. The dose-response curves were determined and IC50 values were calculated using the GraphPad Prism software following a nonlinear regression (least squares fit) method. Data presented was mean±standard deviation (SD) unless otherwise indicated.

The target in experiment [3] is T1, CDK4 (Homo sapiens, UniProt P11802).
T1 construct: endogenous in cells; host or cells: Calu-1
T1 sequence (P11802 2-303 limits assumed): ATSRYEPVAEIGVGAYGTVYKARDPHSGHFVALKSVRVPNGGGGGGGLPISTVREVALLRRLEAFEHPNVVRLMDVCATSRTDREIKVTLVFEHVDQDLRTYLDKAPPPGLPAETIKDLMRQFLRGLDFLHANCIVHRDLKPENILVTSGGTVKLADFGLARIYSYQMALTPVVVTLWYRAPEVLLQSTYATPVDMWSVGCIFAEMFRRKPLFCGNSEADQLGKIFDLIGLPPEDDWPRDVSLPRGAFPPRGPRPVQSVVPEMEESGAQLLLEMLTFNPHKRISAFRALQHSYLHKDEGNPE
T1 sequence (P24385 whole entry partner): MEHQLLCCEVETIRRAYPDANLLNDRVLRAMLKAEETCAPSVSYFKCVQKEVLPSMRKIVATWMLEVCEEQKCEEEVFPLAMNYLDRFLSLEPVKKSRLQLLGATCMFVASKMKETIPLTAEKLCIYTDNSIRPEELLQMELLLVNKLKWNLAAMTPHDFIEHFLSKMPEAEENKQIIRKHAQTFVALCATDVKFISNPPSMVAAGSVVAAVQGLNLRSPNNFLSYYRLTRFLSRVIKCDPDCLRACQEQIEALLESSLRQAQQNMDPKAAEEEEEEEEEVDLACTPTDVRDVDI
T1 sequence (Q16531 2-1140 limits assumed, further chain): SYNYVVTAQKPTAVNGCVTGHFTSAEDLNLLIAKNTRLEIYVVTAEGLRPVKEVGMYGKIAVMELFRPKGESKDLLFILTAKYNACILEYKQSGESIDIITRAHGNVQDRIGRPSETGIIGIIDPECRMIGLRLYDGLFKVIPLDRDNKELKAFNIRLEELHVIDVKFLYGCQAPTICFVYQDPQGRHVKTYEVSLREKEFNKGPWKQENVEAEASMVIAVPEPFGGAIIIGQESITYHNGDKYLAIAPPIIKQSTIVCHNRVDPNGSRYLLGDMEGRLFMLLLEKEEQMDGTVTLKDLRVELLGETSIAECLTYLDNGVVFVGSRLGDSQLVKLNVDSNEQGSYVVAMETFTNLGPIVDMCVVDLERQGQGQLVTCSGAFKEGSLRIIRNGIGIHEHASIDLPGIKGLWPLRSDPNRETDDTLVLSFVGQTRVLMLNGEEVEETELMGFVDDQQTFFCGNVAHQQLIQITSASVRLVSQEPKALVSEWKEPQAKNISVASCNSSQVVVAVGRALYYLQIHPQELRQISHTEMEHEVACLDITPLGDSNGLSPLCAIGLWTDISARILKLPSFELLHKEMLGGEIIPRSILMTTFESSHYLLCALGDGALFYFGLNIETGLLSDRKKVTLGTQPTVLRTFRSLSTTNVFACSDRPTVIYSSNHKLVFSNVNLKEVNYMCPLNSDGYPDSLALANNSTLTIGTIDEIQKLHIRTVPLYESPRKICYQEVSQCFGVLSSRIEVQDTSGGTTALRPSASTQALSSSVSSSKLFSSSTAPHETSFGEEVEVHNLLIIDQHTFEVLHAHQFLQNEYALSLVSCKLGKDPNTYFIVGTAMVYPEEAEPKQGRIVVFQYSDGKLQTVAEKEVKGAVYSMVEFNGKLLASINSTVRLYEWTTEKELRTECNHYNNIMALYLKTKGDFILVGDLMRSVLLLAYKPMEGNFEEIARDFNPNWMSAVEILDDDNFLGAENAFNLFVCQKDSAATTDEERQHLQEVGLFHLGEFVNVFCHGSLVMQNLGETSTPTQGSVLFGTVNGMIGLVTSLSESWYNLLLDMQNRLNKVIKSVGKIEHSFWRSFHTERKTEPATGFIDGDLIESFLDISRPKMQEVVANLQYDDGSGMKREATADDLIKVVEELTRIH
The experiment in a line: CDK4 percentage degradation in Calu-1 cells (immunoblotting). Type of experiment: cell-based. The note with it: Calu-1 cells, 200 nM, 16 hours; read-out: CDK4 Degradation (200 nM). In short, it runs like this:
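CDK4 degradation was measured by immunoblotting. Cells were washed in cold PBS and lysed in RIPA buffer with inhibitors for 30 min at 4° C., then spun at 13,000 rpm to clear. After BCA protein determination, lysates were heated at 99° C. for 5 min in Laemmli buffer, resolved on SDS-PAGE, imaged on a ChemiDoc MP with ECL substrate, and band intensities quantified.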
For orientation: In western blotting, separated proteins are transferred to a membrane and probed.

Experiment [4] concerns cyclin D1, cyclin D2, cyclin D3, CDK4 and CDK6. The experiment in a line: Immunoblotting of cyclin D and CDK4/6 protein levels in Calu-1 cells. The class given is cell-based. The note with it: for degradation potencies compared with corresponding active heterobifunctional compounds: dose range, negative control compounds. As to the method: (§2) Calu-1 (FIG. 2A) or BT-549 (FIG. 2B) cells were treated with CPD-002, CPD-004, or palbociclib at indicated concentrations for 16 hours.
Calu-1 cells were treated with CPD-031 at indicated concentrations for 16 hours.
Calu-1 cells were treated with CPD-002 or CPD-031 at 500 nM or 100 nM, respectively for indicated period of time.
Calu-1 cells were pre-treated with DMSO, 20 μM MG-132 (MG), 5 μM MLN4924 (MLN) or 1 μM TAK-243 (TAK) for 2 hours, and subsequently incubated with 500 nM CPD-002, 500 nM CPD-004, or 100 nM CPD-031 for another 4 h or 2 h prior to immunoblotting (FIG. 5A-5B).
Calu-1 cells were treated with a dose range of negative control compounds CPD-042 or CPD-049 for 16 hours (FIG. 6A-6B).
Calu-1 cells were treated with reference compounds CP-10 or BSJ-03-123 at indicated concentrations for 8 hours.
(§3) Cultured cells were washed with cold PBS once and lysed in cold RIPA buffer supplemented with protease inhibitors and phosphatase inhibitors (Beyotime Biotechnology). The solutions were then incubated at 4° C. for 30 min with gentle agitation to fully lysed cells. Cell lysates were centrifuged at 13,000 rpm for 10 min at 4° C. and pellets were discarded. Total protein concentrations in the lysates were determined following BCA assays (Beyotime Biotechnology). Cell lysates were mixed with Laemmli loading buffer and heated at 99° C. for 5 min. Proteins were resolved on SDS-PAGE and visualized using Western ECL Substrate kits on a ChemiDoc MP Imaging system (Bio-Rad). Protein bands were quantitated using the Image Lab software provided by Bio-Rad.

Experiment [5] relates to Calu-1 cells. The experiment can be described thus: Anti-viability / anti-proliferation in Calu-1 cells. Type of experiment: cell-based. The note with it: CPD-042 vs CPD-002, CPD-049 vs CPD-031. How it is done:
FIG. 6 show immunoblots of cyclin D1, cyclin D2, cyclin D3, and CDK4 proteins expressed by Calu-1 cells after treatment with a dose range of control compounds CPD-042 (A), or CPD-049 (B) for 16 hours, and anti-viability curves of Calu-1 cells in the presence of CPD-002 and CPD-042 (C), or CPD-031 and CPD-049 (D).
FIG. 11A-11B show immunoblots of cyclin D1, CDK4, and CDK6 proteins expressed by Calu-1 cells after treatment with a dose range of heterobifunctional reference compound CP-10, or BSJ-03-123 for 8 hours (FIG. 11A), and anti-viability curves of Calu-1 cells in the presence of CP-10, or BSJ-03-123 for 3 days (FIG. 11B).
as §1

The target in experiment [6] is T2, DDB1 (Homo sapiens, UniProt Q16531, D705G/DEL396-460/DEL463-701/I704S/T703N).
T2 construct: His6 (N, cleaved yes); TEV protease cleavage site (N, cleaved yes); made in house; host or cells: SF9 insect cells, Bac-to-Bac baculovirus, pFastBacHTB vector
T2 sequence (Q16531 other isoform, or with tags, fused parts or gaps DEL396-460/DEL463-701/T703N/I704S/D705G): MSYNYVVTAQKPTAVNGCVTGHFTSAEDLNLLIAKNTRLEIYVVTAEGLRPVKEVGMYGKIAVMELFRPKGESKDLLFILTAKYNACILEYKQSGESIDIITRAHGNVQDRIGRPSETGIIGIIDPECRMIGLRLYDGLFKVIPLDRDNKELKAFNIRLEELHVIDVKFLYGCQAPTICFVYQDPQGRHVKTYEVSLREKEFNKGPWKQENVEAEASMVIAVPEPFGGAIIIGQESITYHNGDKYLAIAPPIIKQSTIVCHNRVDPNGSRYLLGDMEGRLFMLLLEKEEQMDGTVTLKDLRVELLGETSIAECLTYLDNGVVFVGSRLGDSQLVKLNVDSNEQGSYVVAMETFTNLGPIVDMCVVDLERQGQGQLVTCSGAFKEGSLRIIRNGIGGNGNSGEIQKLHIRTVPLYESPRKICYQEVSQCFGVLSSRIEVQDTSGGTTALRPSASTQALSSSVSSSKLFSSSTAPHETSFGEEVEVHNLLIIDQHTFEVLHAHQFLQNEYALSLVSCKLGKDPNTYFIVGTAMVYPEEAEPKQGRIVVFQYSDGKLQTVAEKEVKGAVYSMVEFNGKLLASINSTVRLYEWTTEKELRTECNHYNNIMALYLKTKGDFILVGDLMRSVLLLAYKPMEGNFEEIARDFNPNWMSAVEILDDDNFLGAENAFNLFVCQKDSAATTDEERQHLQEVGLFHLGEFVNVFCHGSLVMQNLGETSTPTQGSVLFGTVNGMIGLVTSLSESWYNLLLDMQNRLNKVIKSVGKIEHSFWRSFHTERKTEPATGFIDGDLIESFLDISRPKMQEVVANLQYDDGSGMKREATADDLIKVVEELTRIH
The experiment in a line: SPR binding assay to immobilized DDB1ΔBPB. The note with it: binding affinities to DDB1. In short, it runs like this:
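Untagged Sf9-expressed DDB1ΔBPB (BPB domain aa 396-705 replaced by GNGNSG linker) amine-coupled to CM5 chip at 10,000-12,000 RU; 25° C, HBS-EP pH 7.4 with 5% DMSO. Compounds injected multi-cycle at 100 μM-3.125 μM (6-point two-fold); double-referenced, solvent-corrected data fit to steady-state model for Kd.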
A general note: In SPR one partner is held on a chip, and binding of the other changes the refractive index at the surface.

Experiment [7] relates to cyclin D1. The experiment in a line: Cyclin D1 percentage degradation in Calu-1 cells (immunoblotting). Type of experiment: cell-based. The note with it: 200 nM, 16 hours. Put shortly:
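Cyclin D1 degradation was assessed by western blot. Clarified lysates, obtained by RIPA lysis with inhibitors and centrifugation at 13,000 rpm, were normalized by BCA protein assay and separated by SDS-PAGE. Bands were detected with Western ECL Substrate on a Bio-Rad ChemiDoc MP Imaging system and quantified in Image Lab software to derive percentage degradation.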

In experiment [8] the target is T2, DDB1. The experiment in a line: Surface plasmon resonance (SPR) binding of heterobifunctional compounds to DDB1. The note with it: purified DDB1ΔBPB immobilized on CM5 chip, multi-cycle kinetic format, steady state model, read-out: binding affinities (Kd) to DDB1. How it is done: To determine whether the addition of linkers and target binders to the DDB1 ligands affected the binding to DDB1 E3 ligase, the binding affinities of heterobifunctional compounds to DDB1 was evaluated using a surface plasmon resonance (SPR) assay. Purified DDB1ΔBPB proteins were immobilized on a CM5 sensor chip and a dose range of compound solutions were injected in multi-cycle kinetic format. Data was fit to steady state model and gave equivalent dissociation constants (Kd).

For experiment [9], the system named is Rb phosphorylation, cleaved caspase-3. The experiment can be described thus: Immunoblotting of downstream Rb phosphorylation and cleaved caspase-3 in Calu-1 or BT-549 cells. The note with it: 16 hours. Type of experiment: cell-based. How it is done: as §2, §3
Experiment [10] relates to cyclin D1, cyclin D2, cyclin D3, CDK4 and CDK6. The experiment in a line: Immunoblotting of cyclin D and CDK4/6 protein levels in BT-549 cells. The note with it: indicated concentrations, 16 hours. The class given is cell-based. As to the method:
as §2, §3

Broadly, the Kd is the free concentration of one partner at which half of the binding sites on the other are occupied at equilibrium, for simple one-to-one binding. For the compound `CC(=O)c1c(C)c2cnc(N(C)c3ccc(N4CCN(CC(=O)NCCOCCOCCOCCOCCOCCNc5ccc(C(=O)Nc6ncc(C)s6)c(C)c5)CC4)cn3)nc2n(C2CCCC2)c1=O` [CPD-042, 4-((1-(4-(6-((6-Acetyl-8-cyclopentyl-5-methyl-7-oxo-7,8-dihydropyrido[2,3-d]pyrimidin-2-yl)(methyl)amino)pyridin-3-yl)piperazin-1-yl)-2-oxo-6,9,12,15,18-pentaoxa-3-azaicosan-20-yl)amino)-2-methyl-N-(5-methylthiazol-2-yl)benzamide], the “decrease of degradation potency versus corresponding active compound” value in experiment [1] is reported as > 10 fold. For the same compound, in experiment [2], the “cell viability (cellular anti-proliferation activity)” value is reported as “much weaker cellular anti-proliferation activities”. Besides, in experiment [3], the inhibition at 0.2 µM was < 30%. Further, the “degradation potencies compared with corresponding active heterobifunctional compounds” value in [4] (16 hours) was “much weaker degradation potencies”. Besides, in [5], the “decrease of cellular anti-proliferation activity versus corresponding active compound” value is listed as > 20 fold. Further, the Kd in [6] was < 20 µM. Moreover, the “CyclinD1 Degradation (200 nM)” value in [7] is “D (protein percentage degradation <30%)”.
In the case of `CC(=O)c1c(C)c2cnc(Nc3ccc(N4CCN(CC(=O)NCCOCCOCCOCCOCCOCCNc5ccc(C(=O)Nc6nccs6)c(C)c5)CC4)cn3)nc2n(C2CCCC2)c1=O` [CPD-004, 4-((1-(4-(6-((6-Acetyl-8-cyclopentyl-5-methyl-7-oxo-7,8-dihydropyrido[2,3-d]pyrimidin-2-yl)amino)pyridin-3-yl)piperazin-1-yl)-2-oxo-6,9,12,15,18-pentaoxa-3-azaicosan-20-yl)amino)-2-methyl-N-(thiazol-2-yl)benzamide], the Kd in [8] was 9.4 µM; in experiment [6], < 20 µM. Moreover, the “downstream Rb phosphorylation and cleaved caspase-3” value in [9] is “inhibited downstream Rb phosphorylation and induced cleaved caspase-3 in a concentration-dependent manner”. The “reduction of cyclin D1, cyclin D2, and cyclin D3 protein levels” value in experiment [1] (immunoblot, Calu-1 / BT-549 cells, dose range) was “particularly effective”. The “cyclin D1, cyclin D2, cyclin D3, CDK4 and CDK6 protein levels” value in [10] was “reduced cyclin D1, cyclin D2, cyclin D3, CDK4 and CDK6 protein levels in a concentration-dependent manner”; in experiment [4] (indicated concentrations, 16 hours) it was “reduced cyclin D1, cyclin D2, cyclin D3, CDK4 and CDK6 protein levels in a concentration-dependent manner”. Besides, the inhibition at 0.2 µM in experiment [3] lay in the range of 30 to 50%. Moreover, the “cyclin D degradation after pretreatment with MG-132, MLN4924 or TAK-243” value in experiment [4] (2 hours pre-treatment, then 500 nM CPD-002, 500 nM CPD-004 or 100 nM CPD-031 for 4 h or 2 h) is on record as “diminished the cyclin D degradation effect”. In addition, the “CyclinD1 Degradation (200 nM)” value in experiment [7] was “A (protein percentage degradation >=80%)”.
Regarding `CC(=O)c1c(C)c2cnc(N(C)c3ccc(N4CCN(CC(=O)NCCOCCOCCOCCOCCOCCNc5ccc(C(=O)Nc6nc(C)c(C)s6)c(C)c5)CC4)cn3)nc2n(C2CCCC2)c1=O` [CPD-049, 4-((1-(4-(6-((6-Acetyl-8-cyclopentyl-5-methyl-7-oxo-7,8-dihydropyrido[2,3-d]pyrimidin-2-yl)(methyl)amino)pyridin-3-yl)piperazin-1-yl)-2-oxo-6,9,12,15,18-pentaoxa-3-azaicosan-20-yl)amino)-N-(4,5-dimethylthiazol-2-yl)-2-methylbenzamide], the “decrease of degradation potency versus corresponding active compound” value in experiment [1] is > 100 fold. Also, the “cell viability (cellular anti-proliferation activity)” value in [2] is “much weaker cellular anti-proliferation activities”. In [3], the inhibition at 0.2 µM is < 30%. For the same compound, the “degradation potencies compared with corresponding active heterobifunctional compounds” value in experiment [4] (16 hours) is “much weaker degradation potencies”. In [5], the “decrease of cellular anti-proliferation activity versus corresponding active compound” value is on record as > 100 fold. This compound also registered a Kd in experiment [6] of 20 to 50 µM. For the same compound, the “CyclinD1 Degradation (200 nM)” value in experiment [7] was “D (protein percentage degradation <30%)”.
